The term MIC denotes the smallest concentration in the dilution series that meets the test's criterion for growth inhibition.

Like-named read-outs stand apart in the source and are kept apart here.

The text below walks through data of patent US12378211B2, “Carbonic anhydrase inhibitors and antibiotics against multidrug resistant bacteria” (Purdue Research Foundation, priority 2018, dated 2025).

Data set [1] concerns Enterococcus faecium E417-HM-965. As to the kind of experiment: MIC of CAIs in BHIB and TSB. It is filed as cell-based. The conditions noted are these: Enterococcus faecium, read-out: MIC. As to the method: (§1) The minimum inhibitory concentrations (MICs) of CAIs were tested against clinical isolates of vancomycin sensitive and vancomycin resistant Enterococci strains as per the guidelines provided by the Clinical and Laboratory Standards Institute (CLSI). The selected strains of Enterococci were streaked on Tryptic Soy Agar (TSA) plates and let grow for 24 hours at 37° C. Afterwards, a bacterial solution equivalent to 0.5 McFarland standard was prepared and diluted in tryptone soy broth (TSB) or brain heart infusion broth (BHIB) to achieve a bacterial concentration of about 5×10^5 CFU/mL and seeded in 96-well well plates. Compounds and control drugs were added in the first row of the 96-well plates and serially diluted along the plates. Plates were then incubated aerobically at 37° C. for 18-20 hours. MICs reported in Table 5 are the minimum concentration of the compounds/control drugs that could inhibit completely the visual growth of the bacteria.

The subject of data set [2] is Enterococcus faecium Patient #2-1-NR-31909. As to the kind of experiment: MIC of CAIs in BHIB and TSB. The data set is classed as cell-based. The conditions noted are these: Enterococcus faecium, read-out: MIC. As to the method:
as §1

Data set [3] relates to Enterococcus fecalis Strain SF 24397 NR31970. The experiment in a line: MIC of CAIs in BHIB and TSB. The data set is classed as cell-based. The conditions noted are these: Enterococcus, read-out: MIC. As to the method: as §1
Data set [4] concerns Enterococcus faecalis—S613 HM-334. The experiment in a line: MIC of CAIs in BHIB and TSB. It is filed as cell-based. The conditions noted are these: Enterococcus, read-out: MIC. As to the method:
as §1, with “bacteria. The MIC values of CAIs against the tested VRE strains were higher in BHIB than in TSB. This may be due to binding of these drugs to proteins. […] They inhibited the VRE strains at MIC values ranging from 1 to 4 μg/mL.” for “bacteria.”

For data set [5], the system named is Enterococcus faecalis-S613 HM-334. The experiment in a line: MIC in presence of 4% human serum albumin. It is filed as cell-based. The following applies: Enterococcus; TSB supplemented with 4% human serum albumin; read-out: MIC. As to the method: as §1, with “against” for “against clinical isolates of vancomycin sensitive and”, “resistant Enterococcus faecalis—S613 HM 334 strain” for “resistant Enterococci strains”, “selected strain was” for “selected strains of Enterococci were”, “(TSA) plate” for “(TSA) plates”, “(TSB) supplemented with 4% human serum albumin (HAS)” for “(TSB) or brain heart infusion broth (BHIB)”, “in table (6)” for “in Table 5”

The subject of a further data set is gut microbiota. Also on record: species or system C57BL/6 mice. The following applies: mouse, in vivo, po, 10 mg/kg. As to the method:
CAIs had no major impact on microbiota composition. An extremely promising and innovative feature of CAIs is their narrow spectrum of activity and their ability to decolonize VRE without harming the microbiome. […] To characterize the impact of CAIs administration on the composition of the gut microbiota we performed the following assay6. Female 12-week-old C57BL/6 mice (n=5 mice per group) were exposed to CAIs by oral gavage for 10 days (10 mg/kg daily). Twenty-four hours after last dose, mice were euthanized and cecal and colon contents were harvested. The microbiome was characterized using 16S rDNA gene sequencing. The microbiotas from treated mice were compared to those from a group of control mice. […] However, at the phylum level, we observed decrease in Firmicutes in CAIs treatment groups and likely due to decrease of enterococci as enterococcus is a large genus of the phylum Firmicutes. The Verrucomicrobia and Bacteroidetes remain constant while other phyla increase to fill the remaining percentage from Firmicute loss. […] Indeed, the use of traditional antibiotics can increase the selective pressure and contribute to the selection of other multi-drug-resistant organisms (Kofteridis D. et al., Int J Infect Dis 2009, 13, e313-315).

In data set [6] the test system is vancomycin-resistant E. faecium. As to the kind of experiment: Mouse model of GI colonization by VRE. The conditions noted are these: 10 mg/kg by oral gavage for 8 days; feces as early as 3rd day. The data set is classed as in vivo, C57BL/6 mice. An excerpt:
Feasibility in vivo study: AZM reduces VRE load in the intestines and faeces. The promising feature, and the specific and potent antimicrobial activity of CAIs, prompted us to evaluate the in vivo efficacy of AZM in our established mouse model of GI colonization by enterococci with features that mimic the antibiotic-induced enterococcal expansion observed in humans (Mohammad, H. et al., Int J Antimicrob Agents 2018, 51, 897-904; Abdelkhalek, A, et al., PLoS One 2018, 13, e0199710). We tested AZM (two clinical doses 10 and 20 mg/kg) in female 12-week-old C57BL/6 mice (n=5 mice per group) that were sensitized with ampicillin ([…] in drinking water) for 7 days to reduce the microbiota present in the gastrointestinal tract and colonized with 10^8 CFU/mL of vancomycin-resistant E. faecium.
We thought that the rapid absorption of AZM from the gastrointestinal tract would limit their exposure time to VRE present in the gastrointestinal tract.
Mice were treated for 8 days with 10 mg/kg of drugs by oral gavage.

Data set [7] can be described thus: Preliminary in vivo toxicity study. The following applies: 200 mg/kg twice daily (400 mg/kg daily) for three days.

Consider `CCN[C@H]1C[C@H](C)S(=O)(=O)c2sc(S(N)(=O)=O)cc21` [Dorzolamide], for which the MIC in data set [1] (E417HM965, BHIB) is 128 µg/mL; in data set [1] (E417HM965, TSB, Table 5), 16 µg/mL; in data set [2] (BHIB) it was above 128 µg/mL; in data set [2] (TSB, Table 5) it was 8 µg/mL; in data set [3] (BHIB) it was above 128 µg/mL; in data set [3] (TSB, Table 5), 8 µg/mL. Besides, the MIC in data set [4] (BHIIB) was above 128 µg/mL; in data set [4] (TSB, Table 5) it was 8 µg/mL; in data set [5] it was above 256 µg/mL. Further, the “taxonomic structure and composition of microbiota” value with gut microbiota was “no major shift or change”.

With `NS(=O)(=O)c1nnc(NCc2ccccc2C(F)(F)F)s1` [analog 8, 5-((2-(trifluoromethyl)benzyl)amino)-1,3,4-thiadiazole-2-sulfonamide], the “reduction of VRE in the feces, cecum and ileum” value in data set [6] was “superior to AZM and linezolid”. Moreover, the “signs of distress or toxicity” value in data set [7] is “None of the mice exhibited any signs of distress or toxicity”.
